This is an account of results in patent publication US4623639A (Hoffmann-La Roche Inc., priority 1983, dated 1986).

Where a name gives a salt, the structure may show the parent alone.

Series [1] concerns the target T1, Human granulocyte elastase (Homo sapiens, UniProt P08246).
T1 sequence (P08246 30-267): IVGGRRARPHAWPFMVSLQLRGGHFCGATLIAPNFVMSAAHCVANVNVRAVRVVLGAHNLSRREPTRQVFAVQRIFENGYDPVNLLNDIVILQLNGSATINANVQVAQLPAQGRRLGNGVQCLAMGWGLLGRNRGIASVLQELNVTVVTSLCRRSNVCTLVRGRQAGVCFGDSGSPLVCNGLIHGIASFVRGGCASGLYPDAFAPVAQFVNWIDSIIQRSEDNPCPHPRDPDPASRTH
The experiment in a line: Assay of the inhibition of human granulocyte elastase (succinyl (Ala)3-p-nitroanilide cleavage). Format: biochemical. To be noted: succinyl (Ala)3-p-nitroanilide substrate, 0.2M Tris HCl pH 8.0, 37° C., 1 hour; read-out: IC50 (concentration required to give 50% inhibition). How it is done:
ASSAY OF THE INHIBITION OF HUMAN GRANULOCYTE ELASTASE TEST METHOD
This assay is based on the method of J. Bieth, B. Spiess and C. G. Wermuth, Biochem. 11, (1974), 350.
Succinyl (Ala)3 -p-nitroanilide (20 μl of a 125 mM solution in N-methylpyrrolidone) was diluted in buffer (3 ml, 0.2M Tris HCl, pH 8.0) and warmed to 37° C. Human granulocyte elastase (4 μg in 20 μl of buffer) was added to initiate the reaction, which was terminated after 1 hour at 37° C. by the addition of glacial acetic acid (100 μl). The p-nitroaniline released was determined by measuring the extinction of the solution at 410 nm by means of a spectrophotometer. The compounds of the present invention, in 50 μl of methanol, were added to the buffered substrate prior to the addition of the human granulocyte elastase and the substrate cleavage rate was compared with solvent controls. The concentration of compound of the present invention required to give 50% inhibition was determined.

Another series relates to male mice. The experiment in a line: Maximum tolerated dose test (no gross behavioural effects). Format: in vivo. To be noted: observed 6 hours and 24 hours after administration. How it is done: MAXIMUM TOLERATED DOSE TEST TEST METHOD
This test determines the maximum acute dose of a compound of this invention which causes no gross behavioural effects.
Groups of 3 male mice are administered 400 mg/kg and 100 mg/kg of a compound of this invention subcutaneously, intravenously or intraperitoneally. The mice are observed periodically during the 6 hours after the administration and 24 hours after the administration. Evidence of stimulation, sedation, loss of righting reflex, convulsions, tremor, death and other gross effects are noted. If effects are observed, the compound is tested at lower dosages in order to determine the no gross effect level. The results are expressed as the maximum dose administered in mg/kg which causes no gross behavioural effects.

Take `CC(C)[C@@H](C=O)NC(=O)[C@@H]1CCCN1C(=O)[C@H](CCCCNC(=O)CCCCC(=O)O)NS(=O)(=O)C12CC3CC(CC(C3)C1)C2` [N^α -(1-adamantylsulphonyl)-N^ε -adipoyl-L-lysyl-L-prolylvalinal]: in series [1], the IC50 stood at 80 nM.

Take `CC(C)[C@@H](C=O)NC(=O)[C@@H]1CCCN1C(=O)[C@H](CCCCNC(=O)c1ccccc1C(=O)O)NS(=O)(=O)C12CC3CC(CC(C3)C1)C2` [N^α -(1-adamantylsulphonyl)-N^ε -(2-carboxybenzoyl)-L-lysyl-L-prolylvalinal]: in series [1], the IC50 was found to be 90 nM.

On to `CC(C)CNC(=O)[C@@H]1CCCN1C(=O)[C@H](CCCCNC(=O)CCC(=O)O)NCCC12CC3CC(CC(C3)C1)C2` [N^α -(1-adamantylethyl)-N^ε -succinyl-L-lysyl-L-proline isobutylamide], for which the “dosage at which no behavioural effects were observed” value in the series on male mice (intraperitoneally) came out at 50 mg/kg. In addition, in series [1], the IC50 came out at 4500 nM.

As for `CC(C)[C@@H](C=O)NC(=O)[C@H](C)NC(=O)[C@H](CCCCNC(=O)CCC(=O)O)NS(=O)(=O)C12CC3CC(CC(C3)C1)C2` [N^α -(1-adamantylsulphonyl)-N^ε -succinyl-L-lysyl-L-alanylvalinal], in series [1], the IC50 was found to be 120 nM.

As to `CC(C)[C@@H](C=O)NC(=O)[C@H](C)NC(=O)[C@H](CCCCNC(=O)c1ccc(C(=O)O)cc1)NS(=O)(=O)C12CC3CC(CC(C3)C1)C2` [N^α -(1-adamantylsulphonyl)-N^ε -(4-carboxybenzoyl)-L-lysyl-L-alanyl-L-valinal], the results for the “dosage at which no behavioural effects were observed” value in the series on male mice (intraperitoneally), in the series on male mice (intravenously) and in the series on male mice (subcutaneously) were 100 mg/kg, 100 mg/kg and 400 mg/kg, respectively. For the same compound, the IC50 in series [1] was 50 nM.

Regarding `CC(C)[C@@H](C=O)NC(=O)[C@@H]1CCCN1C(=O)[C@H](CCCCNC(=O)CCC(=O)O)NS(=O)(=O)C12CC3CC(CC(C3)C1)C2` [N^α -(1-adamantylsulphonyl)-N^ε -succinyl-L-lysyl-L-prolyl-L-valinal], the “dosage at which no behavioural effects were observed” value in the series on male mice (intravenously) was 100 mg/kg; in the series with male mice (subcutaneously), 400 mg/kg. The IC50 in series [1] is 80 nM.

As to `CC(C)[C@@H](C=O)NC(=O)[C@@H]1CCCN1C(=O)[C@H](CCCCNC(=O)c1ccc(C(=O)O)cc1)NS(=O)(=O)C12CC3CC(CC(C3)C1)C2` [N^α -(1-adamantylsulphonyl)-N^ε -(4-carboxybenzoyl)-L-lysyl-L-prolyl-L-valinal], the entries for the “dosage at which no behavioural effects were observed” value with male mice (intraperitoneally), with male mice (intravenously) and in the series on male mice (subcutaneously) were 100 mg/kg, 100 mg/kg and 400 mg/kg, respectively. Further, the IC50 in series [1] was 60 nM.

With `CC(C)CNC(=O)[C@@H]1CCCN1C(=O)[C@H](CCCCNC(=O)CC[C@H](N)C(=O)O)NCCC1CCC2CC1C2(C)C` (some centres unmarked) [dihydrobromide], the IC50 in series [1] is 16000 nM.
